The target of the assay is Protein kinase C alpha type (Homo sapiens, UniProt P17252). Kind of assay: Binding affinity for Protein kinase C alpha C1a or C1b domain.

pKi: −log10 of the molar value.

Turning to `CC(C)CC(C/C=C1/CC(CO)(CN(O)C(=O)C(C)(C)C)OC1=O)CC(C)C` (configuration not stated), the negative logarithm of the Ki (pKi) was 5.16.

`CC(C)CC(C/C=C1\CC(CO)(CN(O)C(=O)C(C)(C)C)OC1=O)CC(C)C` (configuration not stated) had a pKi of 5.17.
